# Reference: EP1339694B1 (F. HOFFMANN-LA ROCHE AG, priority 2000, dated 2002)
# Target: T1, Human Platelet IP Receptor (Homo sapiens, UniProt P43119)
# T1 construct: 250 ml Platelet Rich Plasma was transferred into 250 ml centrifuge tubes and spun at 6000 g; from tissue; host or cells: membranes prepared from platelets (platelet rich plasma)
# Experiment: In vitro Human Platelet IP Receptor Radioligand Binding Assay
# Conditions: not given
# Procedure: In vitro Human Platelet IP Receptor Radioligand Binding Assay
# The in vitro Human Platelet IP Receptor Binding Assay measures the strength of a potential drug's binding affinity to its intended target.
# The following buffers were prepared using the purest available water.
# 250 ml Platelet Rich Plasma was transferred into 250 ml centrifuge tubes and spun at 6000 g for 10 min at 20 °C. Pellets were then resuspended in IP lysis buffer and homogenized using a polytron(setting 7, 1x20 sec. burst), brought up to a final volume of 180 ml and centrifuged at 40000 g for 15 min at 4 °C. The pellets were then resuspended in IP assay buffer, protein density determined by BCA method (Pierce) and stored in 2.0 ml vials at -80 °C for subsequent assay use.
# To obtain at least 80 % specific binding, 50 µg protein/assay tube was used in a competition experiment. The final radioligand concentration was 1 to 3E-8 M.
# The membranes were thawed at room temperature and then diluted in assay buffer to the appropriate concentration. First buffer, drug, radioligand, and lastly, membranes were added to the assay tubes. […] The assay tubes were filtered onto 0.3% PEI pre-treated glass fiber filtermats (GF/ B) using Packard Top Count 96 well cell harvester. The tubes were rinsed three times with ice cold 20mM Tris-HCl, 5mM MgCl2, pH=7.4 (3 x 0.5 ml/sample). Bound radioactivity was determined using liquid scintillation counting.
# T1 sequence (P43119 whole entry): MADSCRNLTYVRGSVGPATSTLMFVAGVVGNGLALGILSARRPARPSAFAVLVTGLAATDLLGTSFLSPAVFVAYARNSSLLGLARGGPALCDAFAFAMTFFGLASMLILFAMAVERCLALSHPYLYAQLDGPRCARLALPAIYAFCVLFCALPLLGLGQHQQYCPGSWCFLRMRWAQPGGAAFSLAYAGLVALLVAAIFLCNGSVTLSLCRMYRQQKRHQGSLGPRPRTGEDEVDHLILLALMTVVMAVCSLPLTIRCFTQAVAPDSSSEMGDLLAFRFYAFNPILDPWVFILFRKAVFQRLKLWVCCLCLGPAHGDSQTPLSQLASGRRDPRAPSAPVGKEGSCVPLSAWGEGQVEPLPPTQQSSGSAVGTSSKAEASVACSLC
row,Compound,Ki [nM]
1,O=C(CCc1ccc(NC2=NCCN2)cc1)c1ccc(N2CCN(C(=O)c3ccco3)CC2)cc1,0.468
2,"O=C(CCc1ccc(NC2=NCCN2)cc1)c1ccc(N2CCOCC2)cc1 [Example 3, 3-[4-(4,5-Dihydro-1H-imidazol-2-ylamino)phenyl]-1-(4-morpholin-4-ylphenyl)-propan-1-one]",5.25

# Same assay, conditions: human platelet membranes, radioligand competition, 25 °C for 60 min; read-out: Affinity towards the Human Platelet IP Receptor (pKi) (converted)
row,Compound,Ki [nM]
1,O=C(CCc1ccc(NC2=NCCN2)cc1)c1ccc(Oc2ccccc2)cc1,20
2,"O=C(CCc1ccc(NC2=NCCN2)cc1)c1ccc(Cl)cc1Cl [1-(2,4-dichlorophenyl)-3-[4-(4,5-dihydro-1H-imidazol-2-ylamino)phenyl]-propan-1-one]",0.282
3,"O=C(CCc1ccc(NC2=NCCN2)cc1)c1ccc(F)cc1F [1-(2,4-difluorophenyl)-3-[4-(4,5-dihydro-1H-imidazol-2-ylamino)phenyl]-propan-1-one]",56.2
4,"O=C(CCc1ccc(NC2=NCCN2)cc1)c1ccc(Cl)c(Cl)c1 [1-(3,4-dichlorophenyl)-3-[4-(4,5-dihydro-1H-imidazol-2-ylamino)phenyl]-propan-1-one]",9.55
5,"O=C(CCc1ccc(NC2=NCCN2)cc1)c1ccc(F)c(F)c1 [1-(3,4-difluorophenyl)-3-[4-(4,5-dihydro-1H-imidazol-2-ylamino)phenyl]-propan-1-one]",22.4
6,"O=C(CCc1ccc(NC2=NCCN2)cc1)c1cc(F)cc(F)c1 [1-(3,5-difluorophenyl)-3-[4-(4,5-dihydro-1H-imidazol-2-ylamino)phenyl]-propan-1-one]",0.741
7,"O=C(CCc1ccc(NC2=NCCN2)cc1)c1cc(F)c(Cl)cc1Cl [1-(4,6-dichloro-3-fluorophenyl)-3-[4-(4,5-dihydro-1H-imidazol-2-ylamino)-phenyl]propan-1-one]",0.708
8,"O=C(CCc1ccc(NC2=NCCN2)cc1)c1ccc(Cl)cc1 [1-(4-chlorophenyl)-3-[4-(4,5-dihydro-1H-imidazol-2-ylamino)phenyl]-propan-1-one]",0.398
9,"CC(=O)N1CCN(c2ccc(C(=O)CCc3ccc(NC4=NCCN4)cc3)cc2)CC1 [1-[4-(4-acetylpiperazin-1-yl)phenyl]-3-[4-(4,5-dihydro-1H-imidazol-2-ylamino)-phenyl]propan-1-one]",6.31
10,"O=C(CCc1ccc(NC2=NCCN2)cc1)c1ccc(Cl)c(Cl)c1Cl [3-[4-(4,5-dihydro-1H-imidazol-2-ylamino)phenyl]-1-(2,3,4-trichlorophenyl)-propan-1-one]",1.74
11,"O=C(CCc1ccc(NC2=NCCN2)cc1)c1ccc(F)cc1 [Example 1, 3-[4-(4,5-Dihydro-1H-imidazol-2-ylamino)phenyl]-1-(4-fluorophenyl)propan-1-one]",0.316
12,"O=C(CCc1ccc(NC2=NCCN2)cc1)c1ccc(N2CCOCC2)cc1F [Example 4, 3-[4-(4,5-Dihydro-1H-imidazol-2-ylamino)phenyl]-1-(2-fluoro-4-morpholin-4-yl-phenyl)propan-1-one]",18.2
13,"CS(=O)(=O)N1CCN(c2ccc(C(=O)CCc3ccc(NC4=NCCN4)cc3)cc2)CC1 [Example 6, 3-[4-(4,5-Dihydro-1H-imidazol-2-ylamino)phenyl]-1-[4-(4-methanesulfonyl-piperazin-1-yl)phenyl]propan-1-one]",28.2
14,"O=C(CCCc1ccc(NC2=NCCN2)cc1)c1ccc(F)cc1 [Example 8, 4-[4-(4,5-Dihydro-1H-imidazol-2-ylamino)phenyl]-1-(4-fluorophenyl)butan-1-one]",3.09
15,"COc1ccc(C(=O)COc2ccc(NC3=NCCN3)cc2)cc1 [Example 10, 2-[4-(4,5-Dihydro-1H-imidazol-2-ylamino)phenoxy]-1-(4-methoxyphenyl)ethanone]",2.75

# Next, values leading:
row,Ki [nM],Compound
1,1,"COc1ccc(C(=O)CCc2ccc(NC3=NCCN3)cc2)c(F)c1 [3-[4-(4,5-dihydro-1H-imidazol-2-ylamino)phenyl]-1-(2-fluoro-4-methoxy-phenyl)-propan-1-one]"
2,0.447,"O=C(CCc1ccc(NC2=NCCN2)cc1)c1ccccc1F [3-[4-(4,5-dihydro-1H-imidazol-2-ylamino)phenyl]-1-(2-fluorophenyl)propan-1-one]"
3,0.676,"O=C(CCc1ccc(NC2=NCCN2)cc1)c1cccc(F)c1 [3-[4-(4,5-dihydro-1H-imidazol-2-ylamino)phenyl]-1-(3-fluorophenyl)propan-1-one]"
4,11.2,"O=C(CCc1ccc(NC2=NCCN2)cc1)c1ccc(OCc2ccccc2)cc1 [3-[4-(4,5-dihydro-1H-imidazol-2-ylamino)phenyl]-1-(4-benzyloxyphenyl)-propan-1-one]"
5,0.437,"CC(C)Oc1ccc(C(=O)CCc2ccc(NC3=NCCN3)cc2)cc1 [3-[4-(4,5-dihydro-1H-imidazol-2-ylamino)phenyl]-1-(4-isopropoxyphenyl)-propan-1-one]"
6,1.48,"O=C(CCc1ccc(NC2=NCCN2)cc1)c1ccc(-c2ccccc2)cc1 [3-[4-(4,5-dihydro-1H-imidazol-2-ylamino)phenyl]-1-(4-phenylphenyl)-propan-1-one]"
7,0.427,"COc1ccc2cc(C(=O)CCc3ccc(NC4=NCCN4)cc3)ccc2c1 [3-[4-(4,5-dihydro-1H-imidazol-2-ylamino)phenyl]-1-(6-methoxynaphthalen-2-yl)-propan-1-one]"
8,1.02,"O=C(CCc1ccc(NC2=NCCN2)cc1)c1cccc2ccccc12 [3-[4-(4,5-dihydro-1H-imidazol-2-ylamino)phenyl]-1-(naphthalen-1-yl)-propan-1-one]"
9,4.9,"O=C(CCc1ccc(NC2=NCCN2)cc1)c1ccc2ccccc2c1 [3-[4-(4,5-dihydro-1H-imidazol-2-ylamino)phenyl]-1-(naphthalen-2-yl)propan-1-one]"
10,3.16,"O=C(CCc1ccc(NC2=NCCN2)cc1)c1ccccc1 [3-[4-(4,5-dihydro-1H-imidazol-2-ylamino)phenyl]-1-(phenyl)propan-1-one]"
11,67.6,"CCOC(=O)N1CCN(c2ccc(C(=O)CCc3ccc(NC4=NCCN4)cc3)c(F)c2)CC1 [3-[4-(4,5-dihydro-1H-imidazol-2-ylamino)phenyl]-1-[4-(4-ethoxycarbonyl-piperazin-1-yl)-2-fluorophenyl]propan-1-one]"
12,38.9,"CCNC(=O)N1CCN(c2ccc(C(=O)CCc3ccc(NC4=NCCN4)cc3)cc2)CC1 [3-[4-(4,5-dihydro-1H-imidazol-2-ylamino)phenyl]-1-[4-(4-ethylamino-carbonyl-piperazin-1-yl)phenyl]propan-1-one]"
13,7.08,"CN1CCN(c2ccc(C(=O)CCc3ccc(NC4=NCCN4)cc3)cc2)CC1 [3-[4-(4,5-dihydro-1H-imidazol-2-ylamino)phenyl]-1-[4-(4-methylpiperazin-1-yl)-phenyl]propan-1-one]"
14,58.9,"CCCOC(=O)N1CCN(c2ccc(C(=O)CCc3ccc(NC4=NCCN4)cc3)cc2)CC1 [3-[4-(4,5-dihydro-1H-imidazol-2-ylamino)phenyl]-1-[4-(4-propoxycarbonyl-piperazin-1-yl)phenyl]propan-1-one]"
15,9.33,"CCOC(=O)N1CCN(c2ccc(C(=O)CCc3ccc(NC4=NCCN4)cc3)cc2)CC1 [Example 5, 3-[4-(4,5-Dihydro-1H-imidazol-2-ylamino)phenyl]-1-[4-(4-ethoxycarbonyl-piperazin-1-yl)-phenyl]propan-1-one]"
16,44.7,"O=C(COc1ccc(NC2=NCCN2)cc1)c1ccc2c(c1)OCCO2 [Example 9, 1-(2,3-Dihydrobenzo[1,4]dioxin-6-yl)-2-[4-(4,5-dihydro-1H-imidazol-2-ylamino)-phenoxy] ethanone]"
